# Data reported in ChEMBL document CHEMBL1137771, “Non-nucleoside inhibitors of HCV polymerase NS5B. Part 2: Synthesis and structure-activity relationships of benzothiazine-substituted quinolinediones” (Bioorg Med Chem Lett, 2009).
# Experiments:
# [1] = Solubility of the compound; assay type: physicochemical
# Hepatitis C virus [2] = experiment: Antiviral activity against HCV genotype 1b infected in human HuH7 cells by replicon assay; assay type: functional, organism-based, Hepacivirus hominis; settings: Huh-7
# [3] = Oral bioavailability in rat; assay type: ADME, organism-based; settings: in vivo
# Hepatitis C virus [4] = experiment: Inhibition of HCV genotype 1b isolate con1 NS5B polymerase assessed as incorporation of radiolabeled nucleotide into RNA product; set-up: species or system Hepacivirus hominis
# [5] = Cytotoxicity against human 2209-23 cells by WST1 assay; assay type: cell-based
# Hepatitis C virus [6] = experiment: Antiviral activity against HCV genotype 1b isolate con1 infected in human 2209-23 cells assessed as inhibition of [3H]thymidine incorporation into DNA by scintillation proximity assay in presence of 5% fetal bovine serum; assay type: functional, organism-based, Hepacivirus hominis; settings: isolate Con1, 2209-23
# Hepatitis C virus [7] = experiment: Antiviral activity against HCV genotype 1b isolate con1 infected in human 2209-23 cells assessed as inhibition of [3H]thymidine incorporation into DNA by scintillation proximity assay in presence of 40% human serum albumin; assay type: functional, organism-based, Hepacivirus hominis; settings: isolate Con1, 2209-23
# Hepatitis C virus [8] = experiment: Ratio of EC50 for HCV genotype 1b isolate con1 in presence of human serum albumin to EC50 for HCV genotype 1b isolate con1 in presence of fetal bovine serum; assay type: functional, Hepacivirus hominis
# [9] = Half life in rat at 2 mg/kg, iv; assay type: ADME, organism-based; set-up: dose 2 mg/kg, route intravenous; settings: in vivo
# Caco-2 = experiment: Efflux ratio of permeability from […] side in human Caco-2 cells after 21 days; assay type: ADME, cell-based; settings: caco-2, 504 h
# [10] = Metabolic stability in rat liver microsomes; assay type: ADME, Microsome; settings: read-out: Stability
# [11] = Metabolic stability in dog liver microsomes; assay type: ADME, Canis lupus familiaris, Microsome; settings: read-out: Stability
# [12] = Cmax in rat at 2 mg/kg, iv; assay type: ADME, organism-based; set-up: dose 2 mg/kg, route intravenous; settings: in vivo
# [13] = Cmax in rat at 5 mg/kg, po; assay type: ADME, organism-based; set-up: dose 5 mg/kg, route oral; settings: in vivo
# [14] = Cmax in dog at 1 mg/kg, iv; assay type: ADME, organism-based, Canis lupus familiaris; set-up: dose 1 mg/kg, route intravenous; settings: in vivo
# [15] = Cmax in dog at 1 mg/kg, po; assay type: ADME, organism-based, Canis lupus familiaris; set-up: dose 1 mg/kg, route oral; settings: in vivo
# [16] = AUC in rat at 2 mg/kg, iv; assay type: ADME, organism-based; set-up: dose 2 mg/kg, route intravenous; settings: plasma
# [17] = AUC in dog at 1 mg/kg, iv; assay type: ADME, organism-based, Canis lupus familiaris; set-up: dose 1 mg/kg, route intravenous; settings: plasma
# [18] = AUC in dog at 1 mg/kg, po; assay type: ADME, organism-based, Canis lupus familiaris; set-up: dose 1 mg/kg, route oral; settings: plasma
# [19] = Clearance in rat at 2 mg/kg, iv; assay type: ADME, organism-based; set-up: dose 2 mg/kg, route intravenous; settings: in vivo
# [20] = Half life in dog at 1 mg/kg, iv; assay type: ADME, organism-based, Canis lupus familiaris; set-up: dose 1 mg/kg, route intravenous; settings: in vivo
# [21] = Clearance in dog at 1 mg/kg, iv; assay type: ADME, organism-based, Canis lupus familiaris; set-up: dose 1 mg/kg, route intravenous; settings: in vivo
# [22] = Half life in dog at 1 mg/kg, po; assay type: ADME, organism-based, Canis lupus familiaris; set-up: dose 1 mg/kg, route oral; settings: in vivo
# [23] = Drug concentration in rat liver at 5 mg/kg, po after 2 hrs; assay type: ADME, organism-based; set-up: dose 5 mg/kg, route oral; settings: read-out: Drug uptake
# [24] = Drug concentration in rat liver at 5 mg/kg, po after 6 hrs; assay type: ADME, organism-based; set-up: dose 5 mg/kg, route oral; settings: read-out: Drug uptake
# serum albumin = serum albumin (Homo sapiens, UniProt P02768); experiment: Binding affinity to human serum albumin; assay type: ADME; settings: read-out: PB (converted)
# Chain of serum albumin (P02768 whole entry): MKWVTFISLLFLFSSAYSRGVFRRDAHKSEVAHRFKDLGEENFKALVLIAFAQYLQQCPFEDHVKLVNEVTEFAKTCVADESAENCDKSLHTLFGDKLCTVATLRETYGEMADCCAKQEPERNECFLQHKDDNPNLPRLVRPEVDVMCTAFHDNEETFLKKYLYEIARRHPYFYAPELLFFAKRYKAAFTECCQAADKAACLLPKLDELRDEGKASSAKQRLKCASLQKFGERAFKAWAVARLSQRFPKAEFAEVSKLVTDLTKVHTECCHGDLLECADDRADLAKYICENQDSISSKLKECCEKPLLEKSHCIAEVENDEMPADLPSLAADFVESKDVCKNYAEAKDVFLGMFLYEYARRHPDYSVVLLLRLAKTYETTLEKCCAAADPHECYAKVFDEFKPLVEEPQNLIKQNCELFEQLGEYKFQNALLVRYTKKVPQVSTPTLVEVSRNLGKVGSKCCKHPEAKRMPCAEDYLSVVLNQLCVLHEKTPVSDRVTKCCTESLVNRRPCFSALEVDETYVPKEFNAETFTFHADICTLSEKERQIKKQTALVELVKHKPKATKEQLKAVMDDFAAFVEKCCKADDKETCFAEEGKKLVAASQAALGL
# [25] = Cmax in male rat at 10 mg/kg, po after 1 day; assay type: ADME, organism-based; set-up: dose 10 mg/kg, route oral; settings: in vivo
# [26] = Cmax in male rat at 10 mg/kg, po after 7 days; assay type: ADME, organism-based; set-up: dose 10 mg/kg, route oral; settings: in vivo
# [27] = Cmax in female rat at 10 mg/kg, po after 1 day; assay type: ADME, organism-based; set-up: dose 10 mg/kg, route oral; settings: in vivo
# [28] = Cmax in female rat at 10 mg/kg, po after 7 days; assay type: ADME, organism-based; set-up: dose 10 mg/kg, route oral; settings: in vivo
# [29] = Cmax in male rat at 100 mg/kg, po after 1 day; assay type: ADME, organism-based; set-up: dose 100 mg/kg, route oral; settings: in vivo
# [30] = Cmax in male rat at 100 mg/kg, po after 7 days; assay type: ADME, organism-based; set-up: dose 100 mg/kg, route oral; settings: in vivo
# [31] = Cmax in female rat at 100 mg/kg, po after 1 day; assay type: ADME, organism-based; set-up: dose 100 mg/kg, route oral; settings: in vivo
# [32] = Cmax in female rat at 100 mg/kg, po after 7 days; assay type: ADME, organism-based; set-up: dose 100 mg/kg, route oral; settings: in vivo
# [33] = Cmax in male rat at 500 mg/kg, po after 1 day; assay type: ADME, organism-based; set-up: dose 500 mg/kg, route oral; settings: in vivo
# [34] = Cmax in male rat at 500 mg/kg, po after 7 days; assay type: ADME, organism-based; set-up: dose 500 mg/kg, route oral; settings: in vivo
# [35] = Cmax in female rat at 500 mg/kg, po after 1 day; assay type: ADME, organism-based; set-up: dose 500 mg/kg, route oral; settings: in vivo
# [36] = AUC (0 to 24 hrs) in male rat at 10 mg/kg, po after 1 day; assay type: ADME, organism-based; set-up: time < 24 hr, dose 10 mg/kg, route oral; settings: plasma
# [37] = AUC in male rat at 10 mg/kg, po after 7 days; assay type: ADME, organism-based; set-up: dose 10 mg/kg, route oral; settings: plasma
# [38] = AUC (0 to 24 hrs) in female rat at 10 mg/kg, po after 1 day; assay type: ADME, organism-based; set-up: time < 24 hr, dose 10 mg/kg, route oral; settings: plasma
# [39] = AUC in female rat at 10 mg/kg, po after 7 days; assay type: ADME, organism-based; set-up: dose 10 mg/kg, route oral; settings: plasma
# [40] = AUC (0 to 24 hrs) in male rat at 100 mg/kg, po after 1 day; assay type: ADME, organism-based; set-up: time < 24 hr, dose 100 mg/kg, route oral; settings: plasma
# [41] = AUC in male rat at 100 mg/kg, po after 7 days; assay type: ADME, organism-based; set-up: dose 100 mg/kg, route oral; settings: plasma
# [42] = AUC (0 to 24 hrs) in female rat at 100 mg/kg, po after 1 day; assay type: ADME, organism-based; set-up: time < 24 hr, dose 100 mg/kg, route oral; settings: plasma
# [43] = AUC in female rat at 100 mg/kg, po after 7 days; assay type: ADME, organism-based; set-up: dose 100 mg/kg, route oral; settings: plasma
# [44] = AUC (0 to 24 hrs) in male rat at 500 mg/kg, po after 1 day; assay type: ADME, organism-based; set-up: time < 24 hr, dose 500 mg/kg, route oral; settings: plasma
# [45] = AUC in male rat at 500 mg/kg, po after 7 days; assay type: ADME, organism-based; set-up: dose 500 mg/kg, route oral; settings: plasma
# [46] = AUC (0 to 24 hrs) in female rat at 500 mg/kg, po after 1 day; assay type: ADME, organism-based; set-up: time < 24 hr, dose 500 mg/kg, route oral; settings: plasma
# [47] = AUC in female rat at 500 mg/kg, po after 7 days; assay type: ADME, organism-based; set-up: dose 500 mg/kg, route oral; settings: plasma
# [48] = Cmin (24 hrs) in male rat at 100 mg/kg, po after 1 day; assay type: ADME, organism-based; set-up: dose 100 mg/kg, route oral; settings: in vivo, read-out: Cmin
# [49] = Cmin (24 hrs) in female rat at 100 mg/kg, po after 1 day; assay type: ADME, organism-based; set-up: dose 100 mg/kg, route oral; settings: in vivo, read-out: Cmin
# [50] = Cmin (24 hrs) in male rat at 500 mg/kg, po after 1 day; assay type: ADME, organism-based; set-up: dose 500 mg/kg, route oral; settings: in vivo, read-out: Cmin
# [51] = Cmin (24 hrs) in female rat at 500 mg/kg, po after 1 day; assay type: ADME, organism-based; set-up: dose 500 mg/kg, route oral; settings: in vivo, read-out: Cmin
# [52] = Toxicity in rat assessed as adverse effects after 7 days; assay type: organism-based; settings: in vivo
# [53] = Ratio of drug level from liver to plasma in po dosed rat after 24 hrs; assay type: ADME, organism-based
# [54] = Cmax in female dog at 2 mg/kg, po dosed as nanosized particles; assay type: ADME, organism-based, Canis lupus familiaris; set-up: dose 2 mg/kg, route oral; settings: in vivo
# [55] = Cmax in female dog at 2 mg/kg, po dosed as normal particles; assay type: ADME, organism-based, Canis lupus familiaris; set-up: dose 2 mg/kg, route oral; settings: in vivo
# [56] = Cmax in female dog at 2 mg/kg administered intraduodenally as cannula dose; assay type: ADME, organism-based, Canis lupus familiaris; set-up: dose 2 mg/kg, route intraduodenal; settings: in vivo
# Hepatocyte = experiment: Metabolic stability in rat hepatocytes assessed per 10^6 cells; assay type: ADME, cell-based
# [57] = Cmax in female rat at 500 mg/kg, po after 7 days; assay type: ADME, organism-based; set-up: dose 500 mg/kg, route oral; settings: in vivo
smiles,measurement,setting,value
O=c1c(C2=CS(=O)(=O)c3ccccc3N2)c(O)c2cc(F)ccc2n1CCC1CC1,solubility,[1],8 µg/mL
same,EC50,Hepatitis C virus [2],1200 nM
same,bioavailability,[3],79%
Cc1cc(Cn2c(=O)c(C3=CS(=O)(=O)c4cc(NS(C)(=O)=O)ccc4N3)c(O)c3cc(F)ccc32)ccc1F,IC50,Hepatitis C virus [4],13 nM
same,CC50,[5],> 50000 nM
same,EC50,Hepatitis C virus [6],23 nM
same,EC50,Hepatitis C virus [7],88 nM
same,fold change (FC),Hepatitis C virus [8],9.2
same,half-life,[9],1.1 h
same,Ratio,Caco-2,3.78
same,microsomal CLint,[10],126 µL/min/mg
same,microsomal CLint,[11],24 µL/min/mg
same,Cmax,[12],130 ng/mL
same,Cmax,[13],2 ng/mL
same,Cmax,[14],4350 ng/mL
same,Cmax,[15],10.6 ng/mL
same,AUC,[16],158 ng·h/mL
same,AUC,[17],954 ng·h/mL
same,AUC,[18],34.8 ng·h/mL
same,clearance,[19],186 mL/min/kg
same,half-life,[20],1.6 h
same,clearance,[21],19 mL/min/kg
same,half-life,[22],1.2 h
same,concentration at 2 h,[23],151 ng/g
same,concentration at 6 h,[24],22 ng/g
same,fraction unbound,serum albumin,0.002
same,Cmax,[25],2.06 ng/mL
same,Cmax,[26],2.76 ng/mL
same,Cmax,[27],3.26 ng/mL
same,Cmax,[28],2.8 ng/mL
same,Cmax,[29],20.4 ng/mL
same,Cmax,[30],21.1 ng/mL
same,Cmax,[31],13 ng/mL
same,Cmax,[32],15.8 ng/mL
same,Cmax,[33],93.2 ng/mL
same,Cmax,[34],152 ng/mL
same,Cmax,[35],48.2 ng/mL
same,AUC(0-t) at 24 h,[36],25.4 ng·h/mL
same,AUC at 168 h,[37],34.4 ng·h/mL
same,AUC(0-t) at 24 h,[38],25.6 ng·h/mL
same,AUC at 168 h,[39],21.2 ng·h/mL
same,AUC(0-t) at 24 h,[40],223 ng·h/mL
same,AUC at 168 h,[41],322 ng·h/mL
same,AUC(0-t) at 24 h,[42],116 ng·h/mL
same,AUC at 168 h,[43],299 ng·h/mL
same,AUC(0-t) at 24 h,[44],821 ng·h/mL
same,AUC at 168 h,[45],1910 ng·h/mL
same,AUC(0-t) at 24 h,[46],701 ng·h/mL
same,AUC at 168 h,[47],1470 ng·h/mL
same,concentration at 24 h,[48],2.8 ng/mL
same,concentration at 24 h,[49],2.1 ng/mL
same,concentration at 24 h,[50],11.3 ng/mL
same,concentration at 24 h,[51],1.3 ng/mL
same,NOAEL at 168 h,[52],> 500 mg/kg/day
same,Kp at 24 h,[53],10
same,solubility,[1],6.7 µg/mL
same,Cmax,[54],< 15 ng/mL
same,Cmax,[55],< 15 ng/mL
same,Cmax,[56],< 15 ng/mL
same,Stability,Hepatocyte,1.6 µL/min
same,Cmax,[57],89.3 ng/mL
CS(=O)(=O)Nc1ccc2c(c1)S(=O)(=O)C=C(c1c(O)c3cc(F)ccc3n(Cc3ccccc3)c1=O)N2,IC50,Hepatitis C virus [4],7 nM
same,CC50,[5],> 50000 nM
same,EC50,Hepatitis C virus [6],44 nM
same,EC50,Hepatitis C virus [7],406 nM
same,fold change (FC),Hepatitis C virus [8],9.2
